Source: US12459891B2, “1-[1-(4-benzyloxy-3,5-difluoro-benzoyl)-4-fluoro-pyrrolidine-2-carbonyl]-pyrrolidine-2-carbonitrile” (ACCURE THERAPEUTICS, S.L., priority 2020, dated 2025)

Columns and labels:
[1] = Plasma levels after oral administration; assay type: in vivo
[2] = target: T1, human prolyl oligopeptidase (Homo sapiens, UniProt P48147); experiment: POP inhibition assay (Z-G-P-AMC substrate, fluorimetric); assay type: biochemical; details: hPOP 20 to 60 nM, 15 min preincubation, 1 hour at 37° C., pH 8.0
T1 construct: His tail; made in house; host or cells: E. coli BL21
T1 sequence (P48147 1-710): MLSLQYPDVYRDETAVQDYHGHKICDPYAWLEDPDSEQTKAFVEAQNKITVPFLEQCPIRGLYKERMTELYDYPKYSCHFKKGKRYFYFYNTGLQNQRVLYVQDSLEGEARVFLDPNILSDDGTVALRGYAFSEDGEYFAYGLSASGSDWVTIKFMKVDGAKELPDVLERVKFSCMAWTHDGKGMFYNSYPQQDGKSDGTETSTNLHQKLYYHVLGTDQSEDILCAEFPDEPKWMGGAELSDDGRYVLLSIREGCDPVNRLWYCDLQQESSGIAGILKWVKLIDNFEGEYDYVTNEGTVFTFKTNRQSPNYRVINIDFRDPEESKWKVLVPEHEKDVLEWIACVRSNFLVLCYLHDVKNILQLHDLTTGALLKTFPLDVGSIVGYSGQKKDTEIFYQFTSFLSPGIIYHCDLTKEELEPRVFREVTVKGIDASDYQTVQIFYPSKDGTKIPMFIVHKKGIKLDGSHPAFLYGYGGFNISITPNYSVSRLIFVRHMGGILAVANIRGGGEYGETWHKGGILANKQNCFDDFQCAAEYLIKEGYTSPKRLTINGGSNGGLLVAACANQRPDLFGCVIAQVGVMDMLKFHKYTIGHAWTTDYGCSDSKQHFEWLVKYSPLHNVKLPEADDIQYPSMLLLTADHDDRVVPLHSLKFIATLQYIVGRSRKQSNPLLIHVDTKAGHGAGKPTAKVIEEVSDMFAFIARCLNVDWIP
Experimental: POP was obtained by expression in E. coli and affinity purification using a His tail fusion according to a literature procedure (Tarragó T et al., Chem Bio Chem 2006; 7:827-33) summarized below:
hPOP expression: E. coli BL21 competent cells were transformed with pETM10 hPOP. To induce expression, a pre-culture of LB medium (50 mL) containing kanamycin (50 μg/mL) was inoculated with one colony and was grown overnight at 37° C. Next day, two cultures of LB medium (500 mL) were inoculated with the overnight culture (10 mL). The inoculated cultures were grown at 37° C. and 220 rpm until the OD595 was 1.2 (2.5-3 hours). […] The column was washed with suspension buffer until the absorbance at 280 nm returned to basal level. […] POP activity was checked in all fractions and positive ones were analyzed by SDS-PAGE and stained with Biosafe Comassie Stain G-250. […] Recombinant hPOP was quantified with the Bio-Rad Protein Assay with BSA as standard. […]
POP activity was determined following the method described by Toide et al (Toide K et al., J. Pharmacol. Exp. Ther. 1995; 274:1370-8), using Z-G-P-AMC (N-benzyloxycarbonyl-Gly-Pro-methylcoumarinyl-7-amide) as POP substrate. […]
Several concentration points (ranging from 25 μM to 400 μM) were measured for each compound. The inhibitory activity on prolyl oligopeptidase was calculated according to eq 1. […]

Detected plasma levels of the drug (in words) [1] | IC50 [2] [nM] | SMILES
very low |  | COc1cc(C(=O)N2CC(F)(F)C[C@H]2C(=O)N2CCC[C@H]2C#N)cc(OC)c1OCc1ccccc1 [Comp Ex. 3, (S)-1-((2S)-1-(4-(benzyloxy)-3,5-dimethoxybenzoyl)-4,4-difluoropyrrolidine-2-carbonyl)pyrrolidine-2-carbonitrile]
 | 45 | N#C[C@@H]1CCCN1C(=O)[C@@H]1C[C@@H](F)CN1C(=O)c1cc(F)c(OCc2ccccc2)c(F)c1 [Example 1, (S)-1-((2S,4R)-1-(4-(benzyloxy)-3,5-difluorobenzoyl)-4-fluoropyrrolidine-2-carbonyl)pyrrolidine-2-carbonitrile]
 | 365 | N#C[C@@H]1CCCN1C(=O)[C@@H]1CC(F)(F)CN1C(=O)c1ccc(OCc2ccccc2)c(F)c1 [Comp Ex. 4, (S)-1-((S)-1-(4-(benzyloxy)-3-fluorobenzoyl)-4,4-difluoropyrrolidine-2-carbonyl) pyrrolidine-2-carbonitrile]
